Data from US8772498B2, “Alkylamine-substituted dicyanopyridine and amino acid ester prodrugs thereof” (Bayer Intellectual Property GmbH, priority 2009, dated 2014).
Counter-ions that a name gives are not always drawn.

How the values were obtained:
[1] = Determination of the solubility in 5% strength aqueous dextrose solution; type: physicochemical; details: for solubility at 24 h: saline or isotonic, thermodynamic from solid, room temperature
Protocol: B-8. Determination of Solubility, Stability and Liberation Behavior a) Determination of the Solubility:
The test substance is suspended in 5% strength aqueous dextrose solution. This suspension is shaken at room temperature for 24 h. After ultracentrifugation at 224 000 g for 30 min, the supernatant is diluted with DMSO and analyzed by HPLC. A two-point calibration plot of the test compound in DMSO is used for quantification.
Agilent 1100 with DAD (G1315A), quat. pump (G1311A), autosampler CTC HTS PAL, degasser (G1322A) and column thermostat (G1316A); column: Phenomenex Gemini C18, 5 μm, 50 mm×2 mm; temperature: 40° C.; eluent A: water/phosphoric acid pH 2; eluent B: acetonitrile; flow rate: 0.7 ml/min; gradient: 0-0.5 min 85% A, 15% B; ramp: 0.5-3 min 10% A, 90% B; 3-3.5 min 10% A, 90% B; ramp: 3.5-4 min 85% A, 15% B; 4-5 min 85% A, 15% B.
Agilent 1100 with DAD (G1315A), quat. pump (G1311A), autosampler CTC HTS PAL, degasser (G1322A) and column thermostat (G1316A); column: VDSoptilab Kromasil 100 C18, 3.5 μm, 60 mm×2.1 mm; temperature: 30° C.; eluent A: water+5 ml perchloric acid/I; eluent B: acetonitrile; flow rate: 0.75 ml/min; gradient: 0-0.5 min 98% A, 2% B; ramp: 0.5-4.5 min 10% A, 90% B; 4.5-6 min 10% A, 90% B; ramp: 6.5-6.7 min 98% A, 2% B; 6.7-7.5 min 98% A, 2% B.

adenosine A2b receptor = molecular target: T1, adenosine A2b receptor (Homo sapiens, UniProt P29275); assay: Indirect determination of adenosine agonism by gene expression (luciferase), A2b cells; type: cell-based; details: CHO cells, luciferase readout
T1 construct: expressed in transfected cells; host or cells: CHO (Chinese Hamster Ovary)
T1 sequence (P29275 1-332): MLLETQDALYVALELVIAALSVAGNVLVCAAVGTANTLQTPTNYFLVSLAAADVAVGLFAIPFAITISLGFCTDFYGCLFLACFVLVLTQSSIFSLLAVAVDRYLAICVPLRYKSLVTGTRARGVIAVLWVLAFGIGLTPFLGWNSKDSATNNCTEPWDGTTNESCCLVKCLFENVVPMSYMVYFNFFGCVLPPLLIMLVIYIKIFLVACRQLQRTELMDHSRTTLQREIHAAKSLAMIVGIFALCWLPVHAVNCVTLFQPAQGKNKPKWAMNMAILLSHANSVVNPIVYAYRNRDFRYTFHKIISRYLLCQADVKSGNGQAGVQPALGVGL
Description: (§1) B-1. Indirect Determination of the Adenosine Agonism by Way of Gene Expression
(§2) Cells of the CHO (Chinese Hamster Ovary) permanent cell line are transfected stably with the cDNA for the adenosine receptor subtypes A1, A2a and A2b. The adenosine A1 receptors are coupled to the adenylate cyclase by way of G, proteins, while the adenosine A2a and A2b receptors are coupled by way of Gs proteins. In correspondence with this, the formation of cAMP in the cell is inhibited or stimulated, respectively. After that, expression of the luciferase is modulated by way of a cAMP-dependent promoter. The luciferase test is optimized, with the aim of high sensitivity and reproducibility, low variance and good suitability for implementation on a robot system, by varying several test parameters, such as cell density, duration of the growth phase and the test incubation, forskolin concentration and medium composition. The following test protocol is used for pharmacologically characterizing cells and for the robot-assisted substance screening:
(§3) The stock cultures are grown, at 37° C. and under 5% CO2, in DMEM/F12 medium containing 10% FCS (fetal calf serum) and in each case split 1:10 after 2-3 days. The test cultures are seeded in 384-well plates with 2000 cells per well and grown at 37° C. for approx. 48 hours. The medium is then replaced with a physiological sodium chloride solution (130 mM sodium chloride, 5 mM potassium chloride, 2 mM calcium chloride, 20 mM HEPES, 1 mM magnesium chloride hexahydrate, 5 mM sodium bicarbonate, pH 7.4). The substances to be tested, which are dissolved in DMSO, are pipetted into the test cultures (maximum final concentration of DMSO in the test mixture: 0.5%) in a dilution series of from 5×10^−11 M to 3×10^−6 M (final concentration). 10 minutes later, forskolin is added to the A1 cells and all the cultures are subsequently incubated at 37° C. for four hours. After that, 35 μl of a solution which is composed of 50% lysis reagent (30 mM disodium hydrogenphosphate, 10% glycerol, 3% TritonX100, 25 mM TrisHCl, 2 mM dithiotreitol (DTT), pH 7.8) and 50% luciferase substrate solution (2.5 mM ATP, 0.5 mM luciferin, 0.1 mM coenzyme A, 10 mM tricine, 1.35 mM magnesium sulfate, 15 mM DTT, pH 7.8) are added to the test cultures, which are shaken for approx. 1 minute and the luciferase activity is measured using a camera system. The ECK values are determined, i.e., the concentrations at which 50% of the luciferase answer is inhibited in the case of the A1 cell, and, respectively, 50% of the maximum stimulation with the corresponding substance is achieved in the case of the A2b and A2a cells.
(§4) Table 1 below lists the ECK values of representative working examples for the receptor stimulation on adenosine A1, A2a and A2b receptor subtypes: […]

adenosine A1 receptor = molecular target: T2, adenosine A1 receptor (Homo sapiens, UniProt P30542); assay: Indirect determination of adenosine agonism by gene expression (luciferase), A1 cells; type: cell-based; details: CHO cells, luciferase readout, 1 μM forskolin
T2 construct: expressed in transfected cells; host or cells: CHO (Chinese Hamster Ovary)
T2 sequence (P30542 1-326): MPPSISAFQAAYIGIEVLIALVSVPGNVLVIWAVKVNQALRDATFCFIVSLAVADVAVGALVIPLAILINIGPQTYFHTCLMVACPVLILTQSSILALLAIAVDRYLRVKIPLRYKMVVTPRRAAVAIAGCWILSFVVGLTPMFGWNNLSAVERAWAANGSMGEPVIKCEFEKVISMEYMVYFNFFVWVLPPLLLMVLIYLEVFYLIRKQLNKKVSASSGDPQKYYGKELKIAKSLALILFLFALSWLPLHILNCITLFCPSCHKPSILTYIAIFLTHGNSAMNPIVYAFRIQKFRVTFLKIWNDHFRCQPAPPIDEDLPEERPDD
Description: as §1, §2, §3, §4

[2] = Stability in buffer at various pH values; type: physicochemical
Protocol: b) Stability in Buffer at Various pH Values:
0.3 mg of the test substance is weighed into a 2 ml HPLC vial and 0.5 ml of acetonitrile or acetonitrile/DMSO (9:1) is added. The substance is dissolved by putting the sample vessel in an ultrasonic bath for about 10 seconds. Then 0.5 ml of the respective (buffer) solution is added, and the sample is again treated in the ultrasonic bath.
(Buffer) solutions employed:
pH 4: 1 liter of Millipore water is adjusted to pH 4.0 with 1 N hydrochloric acid;
pH 7.4: 90.0 g of sodium chloride, 13.61 g of potassium dihydrogen phosphate and 83.35 g of 1 N sodium hydroxide solution are made up to 1 liter with water; this solution is then further diluted 1:10 with Millipore water.
5 μl portions of the test solution are analyzed by HPLC for their content of unchanged test substance, and of active substance (A) produced, every hour over a period of 24 hours at 37° C. The percentage areas of the appropriate peaks are used for quantification.
HPLC method for Examples 41 and 44:
(§5) Agilent 1100 with DAD (G1315B), binary pump (G1312A), autosampler (G1329A), column oven (G1316A), thermostat (G1330B); column: Kromasil 100 C18, 250 mm×4 mm, 5 μm; column temperature: 30° C.; mobile phase A: water+5 ml of perchloric acid/liter, eluent B: acetonitrile; gradient: 0 min 90% A→5.0 min 40% A→18.0 min 10% A→19.0 min 10% A→21.0 min 90% A→23.0 min 90% A; flow rate: 2.0 ml/min; UV detection: 288 nm.
HPLC Method for Examples 50 and 59:
as §5, with “125” for “250”, “60% A→7.0 min 60% A→10.0” for “40% A→18.0”, “A→12.0” for “A→19.0”, “A→14.0” for “A→21.0”, “A→16.0” for “A→23.0”, “294” for “288”
HPLC Method for Example 54:
as §5, with “(G1314A),” for “(G1315B),”, “(G1330A);” for “(G1330B);”
The ratios of the peak areas (F) at the respective time points in relation to the peak areas at the starting time are shown in Table 2 for representative exemplary embodiments: […]

% test substance after 4 h (F(t = 4 h) × 100/F(t = 0 h)) ([2]; pH 4, 37° C.)	% test substance after 24 h (F(t = 24 h) × 100/F(t = 0 h)) ([2]; pH 4, 37° C.)	% test substance after 4 h (F(t = 4 h) × 100/F(t = 0 h)) ([2]; pH 7.4, 37° C.)	% test substance after 24 h (F(t = 24 h) × 100/F(t = 0 h)) ([2]; pH 7.4, 37° C.)	solubility at 24 h [1]	Compound	also measured
					CCCNc1nc(SCc2csc(-c3ccc(Cl)cc3)n2)c(C#N)c(-c2ccc(OCCO)cc2)c1C#N [Example 12]	Solubility of the active substance ([1]; result in words): below the detection limit
					N#Cc1c(SCc2csc(-c3ccc(Cl)cc3)n2)nc(N2CCOCC2)c(C#N)c1-c1ccc(OCCO)cc1 [Example 17, 2-({(2-(4-chlorophenyl)-1,3-thiazol-4-yl)methyl}sulfanyl)-4-(4-(2-hydroxyethoxy)phenyl)-6-(morpholin-4-yl)pyridine-3,5-dicarbonitrile]	EC50 (adenosine A2b receptor): 55 nM; EC50 (adenosine A1 receptor): 0.3 nM
99%	99%	94%	78%		N#Cc1c(SCc2csc(-c3ccc(Cl)cc3)n2)nc(N2CCCC2)c(C#N)c1-c1ccc(OCCOC(=O)CCN)cc1 [Example 50, 2-{4-(2-({(2-(4-Chlorophenyl)-1,3-thiazol-4-yl)methyl}sulfanyl)-3,5-dicyano-6-(pyrrolidin-1-yl)pyridin-4-yl)phenoxy}ethyl beta-alaninate trifluoroacetate]	
				540 µg/mL	CCCNc1nc(SCc2csc(-c3ccc(Cl)cc3)n2)c(C#N)c(-c2ccc(OCCOC(=O)[C@H](C)NC(=O)[C@H](C)N)cc2)c1C#N [Example 51, 2-{4-(2-({(2-(4-Chlorophenyl)-1,3-thiazol-4-yl)methyl}sulfanyl)-3,5-dicyano-6-(propylamino)pyridin-4-yl)phenoxy}ethyl L-alanyl-L-alaninate trifluoroacetate]	
				280 µg/mL	CNc1nc(SCc2csc(-c3ccc(Cl)cc3)n2)c(C#N)c(-c2ccc(OCCOC(=O)[C@@H](N)CCCN)cc2)c1C#N [Example 52, 2-{4-(2-({(2-(4-Chlorophenyl)-1,3-thiazol-4-yl)methyl}sulfanyl)-3,5-dicyano-6-(methylamino)pyridin-4-yl)phenoxy}ethyl L-ornithinate bis(trifluoroacetate)]	
98%	97%	29%	0%	640 µg/mL	CCCNc1nc(SCc2csc(-c3ccc(Cl)cc3)n2)c(C#N)c(-c2ccc(OCCOC(=O)[C@H](C)NC(=O)[C@@H](N)CCCCN)cc2)c1C#N [Example 54, 2-{4-(2-({(2-(4-Chlorophenyl)-1,3-thiazol-4-yl)methyl}sulfanyl)-3,5-dicyano-6-(propylamino)pyridin-4-yl)phenoxy}ethyl L-lysyl-L-alaninate bis(trifluoroacetate)]	
				470 µg/mL	C[C@H](NC(=O)[C@@H](N)CCCN)C(=O)OCCOc1ccc(-c2c(C#N)c(SCc3csc(-c4ccc(Cl)cc4)n3)nc(N3CCCC3)c2C#N)cc1 [Example 58, 2-{4-(2-({(2-(4-Chlorophenyl)-1,3-thiazol-4-yl)methyl}sulfanyl)-3,5-dicyano-6-(pyrrolidin-1-yl)pyridin-4-yl)phenoxy}ethyl L-ornithyl-L-alaninate bis(trifluoroacetate)]	
99%	95%	0%	0%		N#Cc1c(SCc2csc(-c3ccc(Cl)cc3)n2)nc(N2CCCC2)c(C#N)c1-c1ccc(OCCOC(=O)[C@@H](N)CCCN)cc1 [Example 59, 2-{4-(2-({(2-(4-Chlorophenyl)-1,3-thiazol-4-yl)methyl}sulfanyl)-3,5-dicyano-6-(pyrrolidin-1-yl)pyridin-4-yl)phenoxy}ethyl L-ornithinate bis(trifluoroacetate)]	
